# Patent publication US20050245571A1, “Amine derivative” (priority 2001, published 2005)
# Experiments:
# human SSTR2 = biological target: T1, human SSTR2 (Homo sapiens, UniProt P30874); assay: Binding inhibition of 125I-somatostatin-14, SSTR2 membrane fraction; conditions: 125I-somatostatin-14 binding, CHO membrane fraction, 25° C. 60 minutes, Hill plots
# T1 construct: expressed in transfected cells; host or cells: CHO (dhfr-) cells, strain SSTR2-HS5-9, plasmid pAC01 (pAKKO-111 vector)
# Method: (4) Cloning of Human Somatostatin Receptor Protein Subtype 2 (SSTR2) DNA
# pAKKO-111 mentioned under the above (2) was used as the expression vector in CHO (Chinese Hamster Ovary) cells. 5 μg of the plasmid having human SSTR2 cDNA fragment obtained under the above (4) was digested with the restriction enzyme Sal I and subjected to electrophoresis on 1% agarose gel to recover the 1.1 kb DNA fragment encoding human SSTR2. Next, 1 μg of the above-mentioned expression vector pAKKO-111 (5.5 kb) was digested with Sal I to prepare the cloning site for insertion of human SSTR2 DNA fragment. Said expression vector fragment and the 1.1 kb DNA fragment were ligated with T4 DNA ligase. The reaction mixture was introduced into E. coli JM109 by the calcium chloride method to obtain the expression plasmid pAC01 in which human SSTR2 DNA fragment was inserted in regular direction against the promoter from the transformants. This transformant is expressed as Escherichia coli JM109/pAC-01.
# 1×10^6 CHO (dhfr^−) cells were cultured for 24 hours in HAM F12 medium containing 10% bovine fetal serum on a laboratory dish of 8 cm in diameter. To the cells was transfected 10 μg of the human SSTR2 cDNA expression plasmid, pA-C01, obtained under the above (5) by the calcium phosphate method (Cell Phect Transfection Kit: Pharmacia). The medium was switched to DMEM medium containing 10% dialyzed bovine fetal serum 24 hours after the transfection to select the colony-forming cells (i.e. DHFR^+ cells) in this medium. Further, the selected cells were cloned from a single cell by the limiting dilution method and a cell strain which highly expresses human SSTR2, SSTR2-HS5-9, was selected.
# The receptor binding inhibition rate (%) of the subject compound was calculated using each of the membrane fractions prepared in Experimental Examples 1 and 2.
# The membrane fraction was diluted with a buffer solution for assay to adjust the concentration to 3 μg/ml. The diluate was placed in tubes each in quantity of 173 μl. To this were simultaneously added 2 μl of a solution of a subject compound in DMSO and 25 μl of a […] radioisotope-labeled somatostatin-14 (^125I-somatostatin-14: Amersham). For measurement of the maximum binding, a reaction mixture added with 2 μl of DMSO and 25 μl of a […] ^125I-somatostatin was prepared. For measurement of non-specific binding, a reaction mixture added with 2 μl of a 100 μM somatostatin solution in DMSO and 25 μl of a 200 pM ^125I-somatostatin solution was prepared at the same time. The mixtures were allowed to react at 25° C. for 60 minutes. Then, the reaction mixture was filtered by aspiration using a Whatman glass filter (GF-B) treated with polyethylenine. After filtration, the radioactivity of ^125I-somatostatin-14 remaining on the filter paper was measured by a γ-counter. The binding inhibition rate (%) of each subject compound was calculated by the following formula: (TB-SB)/(TB-NSB)×100 • SB: radioactivity when a compound was added • TB: maximum binding radioactivity • NSB: non-specific binding radioactivity
# The binding inhibition rates were measured by changing the concentrations of the subject compound, and the 50% inhibiting concentration of the subject compound (IC50 value) was calculated by the Hill plots. The results are shown in [Table 1].
# human SSTR3 = biological target: T2, human SSTR3 (Homo sapiens, UniProt P32745); assay: Binding inhibition of 125I-somatostatin-14, SSTR3 membrane fraction; conditions: 125I-somatostatin-14 binding, CHO membrane fraction, 25° C. 60 minutes, Hill plots
# T2 construct: expressed in transfected cells; host or cells: CHO (dhfr-) cells, strain SSTR3-15-19, plasmid pA1-11-SSTR3 (pAKKO-111 vector)
# human SSTR5 = biological target: T3, human SSTR5 (Homo sapiens, UniProt P35346); assay: Binding inhibition of 125I-somatostatin-14, SSTR5 membrane fraction; conditions: 125I-somatostatin-14 binding, CHO membrane fraction, 25° C. 60 minutes, Hill plots
# T3 construct: expressed in transfected cells; host or cells: CHO (dhfr-) cells, strain SSTR5-32-4, plasmid pA1-11-SSTR5 (pAKKO-111 vector)
# glucagon secretion = assay: Glucagon Secretion Inhibitory Activity Test (Rat); format: in vivo; conditions: SD rats male fasted, 3 mg/kg oral, insulin 2 U/kg s.c. 120 minutes later, plasma glucagon 30 minutes after insulin
# Method: Glucagon Secretion Inhibitory Activity Test (Rat)
# A 0.5% methylcellulose suspension containing the subject compound (3 mg/kg body weight) (compound administration group) or a 0.5% methylcellulose suspension (compound non-administration group) was orally administered to SD rats (male, 7 weeks of age) after fasting overnight, and 120 minutes later, insulin (2 U/kg body weight, Novo Nordisk) was subcutaneously administered. After 30 minutes from the insulin administration, the blood was,drawn from the vein of eyegrounds of the rats using capillary, and blood plasma was separated by centrifugation. The concentration of glucagon in the obtained blood plasma was measured by radioimmunoassay using a Daiichi glucagon kit (Daiichi Isotope). As a non-treated group, the concentration of glucagon in the blood plasma of rat of the compound non-administration group free of insulin administration was measured in the same manner as above. […]
# T2 sequence (P32745 whole entry): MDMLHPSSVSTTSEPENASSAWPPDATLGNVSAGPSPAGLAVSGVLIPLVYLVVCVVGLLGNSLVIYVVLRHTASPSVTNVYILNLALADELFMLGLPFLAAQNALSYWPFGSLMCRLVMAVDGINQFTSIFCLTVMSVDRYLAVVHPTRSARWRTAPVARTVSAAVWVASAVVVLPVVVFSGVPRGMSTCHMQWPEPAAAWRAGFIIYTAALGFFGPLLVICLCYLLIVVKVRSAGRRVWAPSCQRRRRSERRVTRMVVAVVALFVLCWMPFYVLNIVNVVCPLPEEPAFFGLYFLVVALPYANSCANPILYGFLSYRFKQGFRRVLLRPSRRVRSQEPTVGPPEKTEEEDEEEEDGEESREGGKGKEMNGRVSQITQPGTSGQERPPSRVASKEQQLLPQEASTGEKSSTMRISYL
# T1 sequence (P30874 whole entry): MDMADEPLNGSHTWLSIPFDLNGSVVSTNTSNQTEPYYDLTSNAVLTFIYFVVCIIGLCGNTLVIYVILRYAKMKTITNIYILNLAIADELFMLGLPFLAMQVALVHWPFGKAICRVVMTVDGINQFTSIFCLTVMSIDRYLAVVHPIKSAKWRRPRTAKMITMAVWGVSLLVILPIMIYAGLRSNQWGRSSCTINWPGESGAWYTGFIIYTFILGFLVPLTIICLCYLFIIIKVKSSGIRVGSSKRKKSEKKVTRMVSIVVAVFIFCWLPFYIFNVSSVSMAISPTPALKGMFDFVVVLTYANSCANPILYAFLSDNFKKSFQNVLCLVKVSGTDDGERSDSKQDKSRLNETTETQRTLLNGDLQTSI
# T3 sequence (P35346 whole entry): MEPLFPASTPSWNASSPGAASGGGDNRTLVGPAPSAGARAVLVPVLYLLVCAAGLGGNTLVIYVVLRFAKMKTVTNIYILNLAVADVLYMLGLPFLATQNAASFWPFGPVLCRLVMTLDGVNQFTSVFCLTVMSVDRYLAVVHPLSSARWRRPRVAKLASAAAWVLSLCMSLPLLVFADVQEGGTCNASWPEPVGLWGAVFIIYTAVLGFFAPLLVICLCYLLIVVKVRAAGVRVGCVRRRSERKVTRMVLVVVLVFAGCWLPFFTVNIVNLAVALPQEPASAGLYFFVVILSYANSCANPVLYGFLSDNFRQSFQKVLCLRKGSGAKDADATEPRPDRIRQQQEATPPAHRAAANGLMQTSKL
Compound,IC50 (human SSTR2) [nM],IC50 (human SSTR3) [nM],IC50 (human SSTR5) [nM],glucagon secretion (% of control) (glucagon secretion)
"C[C@@H](c1c[nH]c2ccccc12)[C@@H](NC(=O)N1CCC(Oc2ccc(F)cc2)CC1)C(=O)N1C[C@@H](CN(C)C)Cc2cc(Cl)ccc21 [Example 153, N-[(1R,2S)-1-[[(3R)-6-chloro-3-[(dimethylamino)methyl]-3,4-dihydro-1(2H)-quinolinyl]carbonyl]-2-(1H-indol-3-yl)propyl]-4-(4-fluorophenoxy)-1-piperidinecarboxamide]",0.1,10,40,–
"CC(c1c[nH]c2ccccc12)C(NC(=O)N1CCC(Oc2ccc(O)cc2)CC1)C(=O)N1C[C@@H](CN(C)C)Cc2cc(Cl)ccc21 (single isomer, unassigned; (-)) [Example 141]",0.05,3,10,–
"C[C@@H](c1c[nH]c2ccccc12)[C@@H](NC(=O)N1CCN(C(=O)c2ccccc2)CC1)C(=O)N1C[C@@H](CN(C)C)Cc2cc(Cl)ccc21 [Example 157, 4-benzoyl-N-[(1R,2S)-1-[[(3R)-6-chloro-3-[(dimethylamino)methyl]-3,4-dihydro-1(2H)-quinolinyl]carbonyl]-2-(1H-indol-3-yl)propyl]-1-piperazinecarboxamide]",0.05,1,5,–
"C[C@@H](c1c[nH]c2ccccc12)[C@@H](NC(=O)C1CCN(C(=O)c2cc3ccccc3n2C)CC1)C(=O)N1C[C@@H](CN(C)C)Cc2cc(Cl)ccc21 [Example 6, N-[(1R,2S)-1-[((3R)-6-chloro-3-[(dimethylamino)methyl]-3,4-dihydro-1(2H)-quinolinyl)carbonyl]-2-(1H-indol-3-yl)propyl]-1-[(1-methyl-1H-indol-2-yl)carbonyl]-4-piperidinecarboxamide]",0.2,30,60,15.6 % of control
"C[C@@H](c1c[nH]c2ccccc12)[C@@H](NC(=O)N1CCC(Oc2ccccc2)CC1)C(=O)N1C[C@@H](CN(C)C)Cc2cc(Cl)ccc21 [Example 42, N-[(1R,2S)-1-[((3R)-6-chloro-3-[(dimethylamino)methyl]-3,4-dihydro-1(2H)-quinolinyl)carbonyl]-2-(1H-indol-3-yl)propyl]-4-phenoxy-1-piperidinecarboxamide]",0.1,6,40,3.0 % of control
